“And” between values parts separate entries of the source, which are not always exact repeats. Identical values can stand only once.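 Compound exposure: 48 hours, 5 concentrations, 96-well plates. Abbreviation: GI50, concentration required for 50% inhibition of growth. TGI marks complete inhibition of growth.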
Tests used:
Assay in all cases: growth of human tumour cells (NCI), 48 h
A498 renal = tested on: A498 renal
K-562 leukemia = tested on: K-562 leukemia
OVCAR-8 ovarian = tested on: OVCAR-8 ovarian
NCI-H460 lung = tested on: NCI-H460 lung
MCF7 breast = tested on: MCF7 breast
UO-31 renal = tested on: UO-31 renal
NCI-H23 lung = tested on: NCI-H23 lung
UACC-62 melanoma = tested on: UACC-62 melanoma
MOLT-4 leukemia = tested on: MOLT-4 leukemia
UACC-257 melanoma = tested on: UACC-257 melanoma
SR leukemia = tested on: SR leukemia
TK-10 renal = tested on: TK-10 renal
IGROV1 ovarian = tested on: IGROV1 ovarian
RPMI-8226 leukemia = tested on: RPMI-8226 leukemia
HS 578T breast = tested on: HS 578T breast
U251 CNS = tested on: U251 CNS
OVCAR-3 ovarian = tested on: OVCAR-3 ovarian
HCC-2998 colon = tested on: HCC-2998 colon
SNB-19 CNS = tested on: SNB-19 CNS
SF-295 CNS = tested on: SF-295 CNS
SW-620 colon = tested on: SW-620 colon
SK-MEL-2 melanoma = tested on: SK-MEL-2 melanoma
NCI-H226 lung = tested on: NCI-H226 lung
RXF 393 renal = tested on: RXF 393 renal
HCT-116 colon = tested on: HCT-116 colon
KM12 colon = tested on: KM12 colon
SK-MEL-28 melanoma = tested on: SK-MEL-28 melanoma
786-0 renal = tested on: 786-0 renal
HT29 colon = tested on: HT29 colon
HL-60(TB) leukemia = tested on: HL-60(TB) leukemia
DU-145 prostate = tested on: DU-145 prostate
CCRF-CEM leukemia = tested on: CCRF-CEM leukemia
SK-MEL-5 melanoma = tested on: SK-MEL-5 melanoma
NCI-H522 lung = tested on: NCI-H522 lung
M14 melanoma = tested on: M14 melanoma
A549 NSCLC = tested on: A549 NSCLC
OVCAR-5 ovarian = tested on: OVCAR-5 ovarian
SF-268 CNS = tested on: SF-268 CNS
HCT-15 colon = tested on: HCT-15 colon
ACHN renal = tested on: ACHN renal
BT-549 breast = tested on: BT-549 breast
SN12C renal = tested on: SN12C renal
MDA-MB-435 = tested on: MDA-MB-435
OVCAR-4 ovarian = tested on: OVCAR-4 ovarian
NCI/ADR-RES ovarian = tested on: NCI/ADR-RES ovarian
PC-3 prostate = tested on: PC-3 prostate
MALME-3M melanoma = tested on: MALME-3M melanoma
HOP-62 NSCLC = tested on: HOP-62 NSCLC
SF-539 CNS = tested on: SF-539 CNS
LOX IMVI melanoma = tested on: LOX IMVI melanoma
SK-OV-3 ovarian = tested on: SK-OV-3 ovarian
EKVX NSCLC = tested on: EKVX NSCLC

C#CC[C@@H]1C[C@]2(C)[C@H]3CC=C4[C@H]5[C@@H](C)[C@H](C)CC[C@]5(C(=O)NCCCCCCCCN)CC[C@@]4(C)[C@]3(C)CC[C@H]2C(C)(C)[C@H]1OC(C)=O
GI50 (A498 renal): 1.78 µM
TGI (A498 renal): 3.21 µM
GI50 (K-562 leukemia): 2.02 µM
TGI (K-562 leukemia): 5.69 µM
GI50 (OVCAR-8 ovarian): 2.15 µM
TGI (OVCAR-8 ovarian): 5.01 µM

COC(=O)[C@H](Cc1ccccc1)NNC(=O)c1csc([C@@H](C[C@H](C(C)C)N(C)C(=O)[C@@H](NC(=O)[C@H]2CCCCN2C)C2CC2)OC(C)=O)n1
TGI (NCI-H460 lung): 25 µM and > 100 µM
GI50 (MCF7 breast): 0.00392 µM and 0.0025 µM and 0.0244 µM
TGI (MCF7 breast): 25 µM and > 100 µM
TGI (UO-31 renal): 25 µM and > 100 µM
TGI (NCI-H23 lung): 25 µM and > 100 µM
GI50 (UACC-62 melanoma): 0.0176 µM and 0.0025 µM
TGI (UACC-62 melanoma): 25 µM
TGI (MOLT-4 leukemia): 25 µM and > 100 µM
TGI (UACC-257 melanoma): > 100 µM
GI50 (SR leukemia): 0.00139 µM and 0.0025 µM
TGI (SR leukemia): 25 µM and > 100 µM
TGI (TK-10 renal): 25 µM and > 100 µM
GI50 (K-562 leukemia): 0.00302 µM and 0.0025 µM and 0.0243 µM
TGI (K-562 leukemia): 25 µM and > 100 µM
TGI (IGROV1 ovarian): 25 µM and > 100 µM
TGI (RPMI-8226 leukemia): 25 µM and > 100 µM
TGI (HS 578T breast): > 100 µM
TGI (U251 CNS): 25 µM and > 100 µM
GI50 (OVCAR-3 ovarian): 0.00213 µM
TGI (HCC-2998 colon): 25 µM and > 100 µM
TGI (SNB-19 CNS): > 100 µM
TGI (SF-295 CNS): 25 µM and > 100 µM
TGI (SW-620 colon): 25 µM and > 100 µM
GI50 (SK-MEL-2 melanoma): 0.035 µM and 0.0932 µM
TGI (SK-MEL-2 melanoma): > 100 µM
TGI (NCI-H226 lung): 25 µM and > 100 µM
GI50 (RXF 393 renal): 0.0025 µM
TGI (RXF 393 renal): 25 µM
TGI (HCT-116 colon): 25 µM and > 100 µM
TGI (KM12 colon): 25 µM and > 100 µM
TGI (SK-MEL-28 melanoma): 25 µM and > 100 µM
TGI (786-0 renal): 25 µM and > 100 µM
TGI (HT29 colon): 25 µM and > 100 µM
GI50 (HL-60(TB) leukemia): 0.0013 µM
TGI (HL-60(TB) leukemia): 0.00596 µM
TGI (DU-145 prostate): 25 µM and > 100 µM
GI50 (CCRF-CEM leukemia): 0.00377 µM and 0.0025 µM and 0.0213 µM
TGI (CCRF-CEM leukemia): 25 µM and > 100 µM
TGI (SK-MEL-5 melanoma): 0.51 µM and 2.26 µM
GI50 (NCI-H522 lung): 0.00154 µM and 0.0144 µM
GI50 (M14 melanoma): 0.0112 µM and 0.0025 µM
TGI (M14 melanoma): 25 µM
TGI (A549 NSCLC): 25 µM and > 100 µM
TGI (OVCAR-5 ovarian): 25 µM and > 100 µM
TGI (OVCAR-8 ovarian): 25 µM and > 100 µM
TGI (SF-268 CNS): 25 µM and > 100 µM
TGI (HCT-15 colon): 25 µM and > 100 µM
TGI (ACHN renal): 25 µM and > 100 µM
TGI (BT-549 breast): 0.317 µM and 0.973 µM
TGI (SN12C renal): 25 µM and > 100 µM
GI50 (MDA-MB-435): 0.00165 µM and 0.0151 µM
TGI (OVCAR-4 ovarian): 25 µM and > 100 µM
GI50 (NCI/ADR-RES ovarian): 15.7 µM and 11 µM
TGI (NCI/ADR-RES ovarian): 25 µM and > 100 µM
TGI (PC-3 prostate): 25 µM and > 100 µM
TGI (MALME-3M melanoma): > 100 µM
TGI (HOP-62 NSCLC): 25 µM and > 100 µM
GI50 (SF-539 CNS): 0.00648 µM and 0.0315 µM
TGI (SF-539 CNS): 0.0564 µM and 0.461 µM
TGI (LOX IMVI melanoma): 25 µM and > 100 µM
GI50 (SK-OV-3 ovarian): 0.48 µM and 1 µM
TGI (SK-OV-3 ovarian): > 100 µM
TGI (EKVX NSCLC): > 100 µM

Source: PubChem BioAssay (NCI)
